Results on 26 compounds are retold here after ChEMBL document CHEMBL3046554, “Investigating the mode of action of sulfoxaflor: a fourth-generation neonicotinoid” (Pest Manag Sci, 2013).

≈ marks a conversion by molar mass, not a printed value. Calls of active or inactive are those of the source. The calls are words filed in the database; no cut-off is given here. Where only a bound is given, the exact number is not on record here.

The subject of test [1] is Myzus persicae. As to the kind of experiment: Binding affinity to nAChR in neonicotinoid-resistant Myzus persicae FRC-P (green peach aphid) membrane at 0.05 to 16 nM after 70 min. Particulars: tested as the 3H-labelled form.
The test system of test [2] is Myzus persicae. As to the kind of experiment: whole plant or invertebrate. Particulars: 4106A, in Brassica rapa, 72 h. It counts as functional.
Description: Insecticidal activity against Myzus persicae 4106A (green peach aphid) fed on compound treated chinese cabbage discs after 72 hr
The test system of test [3] is Myzus persicae. Briefly: Ratio of Ki for [3H]IMD displacement to [3H]-methyl-SFX displacement from nAChR in Myzus persicae 4106A (green peach aphid) membrane. Particulars: tested as the 3H-labelled form.
The subject of test [4] is Myzus persicae. Briefly: Displacement of [3H]-methyl-SFX from nAChR in Myzus persicae (green peach aphid) 4106A membrane at 1 ppm after 70 min. (Loss of bound radioactivity is the signal in a displacement assay; it reports binding, not function.)
In test [5] the test system is Myzus persicae. As to the kind of experiment: Insecticidal activity against neonicotinoid-resistant Myzus persicae FRC-P (green peach aphid) fed on compound treated chinese cabbage discs after 72 hr. It counts as functional. Particulars: in Brassica rapa.

Regarding `CC(C)(c1ccc(C(F)(F)F)nc1)S(C)(=O)=NC#N` (stereo unspecified), the result in the test on Myzus persicae [1] was inactive. In the test with Myzus persicae [2], the LC50 (usually the concentration lethal to half of the exposed cells or organisms) turned out to be 0.45 µg/mL (≈ 1.54 µM). In addition, the Ratio Ki with Myzus persicae [3] stood at 100.
For `C=CCC(F)(F)c1ccc(C(C)S(C)(=O)=NC#N)cn1` (stereo unspecified), the LC50 in the test with Myzus persicae [2] is above 100 µg/mL.
In the case of `N#Cc1nn(-c2c(Cl)cc(C(F)(F)F)cc2Cl)c(N)c1[S+]([O-])C(F)(F)F` (stereo unspecified), the Activity in the test with Myzus persicae [4] came to 30%.
`CC(c1ccc(Cl)nc1)S(C)(=O)=NC#N` (stereo unspecified) displayed an LC50 in the test with Myzus persicae [2] of 1.4 µg/mL (≈ 5.74 µM).
Consider `CCC(C)c1cc([N+](=O)[O-])cc([N+](=O)[O-])c1O` (stereo unspecified), for which the Activity in the test on Myzus persicae [4] was found to be 13%.
Regarding `CN/C(=N\[N+](=O)[O-])NCc1cnc(Cl)s1` [CLOTHIANIDINE], the LC50 amounted to 0.3 µg/mL (≈ 1.2 µM) in the test on Myzus persicae [2] and 904 µg/mL (≈ 3620 µM) in the test on Myzus persicae [5].
Turning to `CCS(=O)(=NC#N)C(C)(C)c1ccc(C(F)(F)F)nc1` (stereo unspecified), the LC50 with Myzus persicae [2] is 20.5 µg/mL (≈ 67.1 µM).
As for `O=[N+]([O-])/N=C1\NCCN1Cc1ccc(Cl)nc1` [IMIDACLOPRID], the values for the LC50 in the test with Myzus persicae [2] and in the test on Myzus persicae [5] were 0.1 µg/mL (≈ 0.391 µM) and 108 µg/mL (≈ 422 µM), respectively.
With `C/C(=N\C#N)N(C)Cc1ccc(Cl)nc1` [ACETAMIPRID], the figures for the LC50 in the test with Myzus persicae [2] and in the test on Myzus persicae [5] were 0.6 µg/mL (≈ 2.69 µM) and 49.3 µg/mL (≈ 221 µM), respectively.
In the case of `CC[C@H](C)[C@H]1O[C@]2(C=C[C@@H]1C)C[C@@H]1C[C@@H](C/C=C(\C)[C@@H](O[C@H]3C[C@H](OC)[C@@H](O[C@H]4C[C@H](OC)[C@@H](O)[C@H](C)O4)[C@H](C)O3)[C@@H](C)/C=C/C=C3\CO[C@@H]4[C@H](O)C(C)=C[C@@H](C(=O)O1)[C@]34O)O2.CO[C@H]1C[C@H](O[C@H]2[C@H](C)O[C@@H](O[C@@H]3/C(C)=C/C[C@@H]4C[C@@H](C[C@]5(C=C[C@H](C)[C@@H](C(C)C)O5)O4)OC(=O)[C@@H]4C=C(C)[C@@H](O)[C@H]5OC/C(=C\C=C\[C@@H]3C)[C@]54O)C[C@@H]2OC)O[C@@H](C)[C@@H]1O`, the Activity in the test on Myzus persicae [4] was -6%.
In the test with Myzus persicae [2], `CS(=O)(Cc1cnc(Cl)s1)=NC#N` (stereo unspecified) registered an LC50 of 14.4 µg/mL (≈ 61.2 µM).
As to `CNC(=O)O/N=C/C(C)(C)SC`, the Activity in the test on Myzus persicae [4] was 0%.
Turning to `CC1(C)[C@H](/C=C(\Cl)C(F)(F)F)[C@@H]1C(=O)O[C@@H](C#N)c1cccc(Oc2ccccc2)c1` (relative stereo), in the test on Myzus persicae [4], the Activity turned out to be 3%.
Regarding `CCN(Cc1ccc(Cl)nc1)/C(=C/[N+](=O)[O-])NC` [NITENPYRAM], the LC50 was determined as 1.3 µg/mL (≈ 4.8 µM) with Myzus persicae [2] and 236 µg/mL (≈ 872 µM) with Myzus persicae [5].
Turning to `CC(c1ccc(C(F)(F)F)nc1)S(C)(=O)=NC(N)=O` (stereo unspecified), the LC50 in the test with Myzus persicae [2] is above 100 µg/mL.
Consider `CS(=O)(Cc1ccc(C(F)(F)Cl)nc1)=NC#N` (stereo unspecified), for which, in the test on Myzus persicae [2], the LC50 was 9.6 µg/mL (≈ 34.3 µM).
For the compound `CC(c1ccc(C(F)(F)F)nc1)S(C)(=O)=NC#N` (stereo unspecified) [SULFOXAFLOR], the LC50 with Myzus persicae [2] turned out to be 0.08 µg/mL (≈ 0.289 µM); in the test with Myzus persicae [5] it was 4.3 µg/mL (≈ 15.5 µM).
Taken in the same sequence, the figures for `CN/C(=N/CC1CCOC1)N[N+](=O)[O-]` (stereo unspecified) [DINOTEFURAN] were 10 µg/mL (≈ 49.5 µM) and 538 µg/mL (≈ 2660 µM).
For `N#C/N=C1\SCCN1Cc1ccc(Cl)nc1` [THIACLOPRID], the LC50 in the test with Myzus persicae [2] is 0.4 µg/mL (≈ 1.58 µM); in the test with Myzus persicae [5], above 1000 µg/mL.
Take `CN1COCN(Cc2cnc(Cl)s2)/C1=N\[N+](=O)[O-]` [THIAMETHOXAM]: the LC50 in the test on Myzus persicae [2] amounted to 0.5 µg/mL (≈ 1.71 µM); with Myzus persicae [5], 108 µg/mL (≈ 370 µM).
As to `CCN(CC)c1nc(C)cc(OP(=S)(OC)OC)n1`, the Activity in the test on Myzus persicae [4] is 2%.
Regarding `Cc1nc(C(F)(F)F)ccc1CS(C)(=O)=NC#N` (stereo unspecified), the LC50 in the test on Myzus persicae [2] was above 100 µg/mL.
Take `CC(c1ccc(C(F)(F)F)nc1)S(C)(=O)=N[N+](=O)[O-]` (stereo unspecified): the LC50 with Myzus persicae [2] is above 100 µg/mL.
Turning to `C[C@@](F)(c1ccc(C(F)(F)F)nc1)S(C)(=O)=NC#N` (stereo partly specified), in the test on Myzus persicae [2], the LC50 came to 4.64 µg/mL (≈ 15.7 µM).
In the test on Myzus persicae [2], `CON=CCCC(F)(F)c1ccc(C(C)S(C)(=O)=NC#N)cn1` (stereo unspecified) came in with an LC50 above 100 µg/mL.
As for `CNC(=O)c1cc(Cl)cc(C)c1NC(=O)c1cc(Br)nn1-c1ncccc1Cl`, the Activity with Myzus persicae [4] came out at 8%.
